The source of these data is US7928107B2, “Quinazolines useful as modulators of ion channels” (Vertex Pharmaceuticals Incorporated, priority 2004, dated 2011).

The pIC50 is the negative decadic logarithm of the IC50, by convention in mol/L.

pIC50: −log10 of the molar value. Some results are limits rather than exact numbers.

For the experiment, the target named is NaV 1.8 channel (Homo sapiens, UniProt Q9Y5Y9). Kind of experiment: Activity against NaV 1.8 channel (optical membrane potential assay). In kind it is cell-based. The method in brief:
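Cells expressing the NaV of interest loaded with CC2-DMPE (30 min, room temperature) then DiSBAC2(3) with ABSCl and veratridine; compound incubated 20–30 min. Depolarization triggered by sodium add-back and read on VIPR as 460/580 nm FRET ratio (Rf/Ri), normalized to tetracaine and untreated controls.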

Chain of NaV 1.8 channel (Q9Y5Y9 whole entry): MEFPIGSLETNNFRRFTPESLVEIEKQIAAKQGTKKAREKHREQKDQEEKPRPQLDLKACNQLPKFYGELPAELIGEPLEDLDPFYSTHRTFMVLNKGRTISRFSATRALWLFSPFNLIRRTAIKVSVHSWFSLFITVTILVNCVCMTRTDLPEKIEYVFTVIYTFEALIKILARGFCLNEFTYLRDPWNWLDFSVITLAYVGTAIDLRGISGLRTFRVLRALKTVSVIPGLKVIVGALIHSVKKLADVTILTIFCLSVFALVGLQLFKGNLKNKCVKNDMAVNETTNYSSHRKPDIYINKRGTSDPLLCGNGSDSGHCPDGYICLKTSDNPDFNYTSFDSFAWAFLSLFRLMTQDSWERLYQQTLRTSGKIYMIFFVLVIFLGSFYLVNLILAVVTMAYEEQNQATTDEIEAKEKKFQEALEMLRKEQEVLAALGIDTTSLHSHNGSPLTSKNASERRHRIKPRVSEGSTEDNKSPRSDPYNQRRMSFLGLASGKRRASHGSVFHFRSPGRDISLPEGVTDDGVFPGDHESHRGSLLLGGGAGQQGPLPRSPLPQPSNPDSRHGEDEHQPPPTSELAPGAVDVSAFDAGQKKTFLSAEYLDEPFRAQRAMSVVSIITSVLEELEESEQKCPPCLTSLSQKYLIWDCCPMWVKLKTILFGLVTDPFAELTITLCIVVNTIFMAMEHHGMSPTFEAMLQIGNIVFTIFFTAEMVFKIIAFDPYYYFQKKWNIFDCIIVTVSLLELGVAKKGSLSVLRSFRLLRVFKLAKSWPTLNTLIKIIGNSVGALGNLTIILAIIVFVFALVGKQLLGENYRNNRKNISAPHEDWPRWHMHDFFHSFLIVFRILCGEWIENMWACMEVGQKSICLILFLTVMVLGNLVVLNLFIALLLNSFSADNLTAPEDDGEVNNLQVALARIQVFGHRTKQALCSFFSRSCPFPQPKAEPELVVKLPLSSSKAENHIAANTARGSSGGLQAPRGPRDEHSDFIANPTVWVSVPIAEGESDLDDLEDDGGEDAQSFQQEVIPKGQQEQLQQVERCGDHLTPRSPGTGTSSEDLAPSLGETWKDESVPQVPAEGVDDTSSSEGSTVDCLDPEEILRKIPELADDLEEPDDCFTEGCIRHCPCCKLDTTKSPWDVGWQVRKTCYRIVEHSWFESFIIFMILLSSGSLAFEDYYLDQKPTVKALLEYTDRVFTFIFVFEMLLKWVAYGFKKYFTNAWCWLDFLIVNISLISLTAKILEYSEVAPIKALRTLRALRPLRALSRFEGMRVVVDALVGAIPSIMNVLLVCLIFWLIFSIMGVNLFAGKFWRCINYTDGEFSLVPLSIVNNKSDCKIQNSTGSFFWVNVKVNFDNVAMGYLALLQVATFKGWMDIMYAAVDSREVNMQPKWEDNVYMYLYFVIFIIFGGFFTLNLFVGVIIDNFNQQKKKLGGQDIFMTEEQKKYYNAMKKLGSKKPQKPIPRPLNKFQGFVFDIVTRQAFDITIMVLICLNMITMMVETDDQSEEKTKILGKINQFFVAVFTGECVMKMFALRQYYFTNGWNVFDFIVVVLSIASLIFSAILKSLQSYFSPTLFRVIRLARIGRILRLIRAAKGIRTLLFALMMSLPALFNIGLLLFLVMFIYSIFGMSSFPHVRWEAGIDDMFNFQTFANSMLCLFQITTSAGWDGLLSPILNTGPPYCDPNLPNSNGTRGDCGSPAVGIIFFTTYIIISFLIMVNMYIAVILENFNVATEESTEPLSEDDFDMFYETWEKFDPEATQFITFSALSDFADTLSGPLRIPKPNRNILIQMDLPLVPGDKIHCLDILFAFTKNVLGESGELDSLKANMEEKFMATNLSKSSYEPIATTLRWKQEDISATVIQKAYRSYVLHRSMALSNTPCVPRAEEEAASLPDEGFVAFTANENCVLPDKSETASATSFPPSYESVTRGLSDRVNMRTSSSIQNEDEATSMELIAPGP

Consider `Cc1ccc2c(N3CCN(C(=O)[C@H](O)CC(=O)O)CC3)nc(-c3ccccc3O)nc2c1` [Example 145, (R)-3-Hydroxy-4-(4-(2-(2-hydroxyphenyl)-7-methylquinazolin-4-yl)piperazin-1-yl)-4-oxobutanoic acid], for which the pIC50 is below 5.00. To `Cc1ccc2c(N3CCC[C@H](CNC(=O)O[C@@H]4CCOC4)C3)nc(-c3ccccc3O)nc2c1` [Example 216, (R)-Tetrahydrofuran-3-yl ((R)-1-(2-(2-hydroxyphenyl)-7-methylquinazolin-4-yl)piperidin-3-yl)methylcarbamate] belongs below 5.00. To `Cc1ccc2c(N3CCN(C(=O)[C@H](O)C(F)(F)F)CC3)nc(-c3ccccc3O)nc2c1` [Example 177, (S)-3,3,3-Trifluoro-2-hydroxy-1-(4-(2-(2-hydroxyphenyl)-7-methylquinazolin-4-yl)piperazin-1-yl)propan-1-one] belongs 5.00 to 5.70; to `Cc1ccc2c(N3CC[C@@H](NC(=O)CC4CCOCC4)C3)nc(-c3ccccc3O)nc2c1` [Example 317, 2-(Tetrahydro-2H-pyran-4-yl)-N—((R)-1-(2-(2-hydroxyphenyl)-7-methylquinazolin-4-yl)pyrrolidin-3-yl)acetamide], 5.00 to 5.70; to `Cc1ccc2c(N3CC[C@H](CNC(=O)[C@H]4CCCO4)C3)nc(-c3ccccc3O)nc2c1` [Example 308, (2R)-Tetrahydro-N—(((R)-1-(2-(2-hydroxyphenyl)-7-methylquinazolin-4-yl)pyrrolidin-3-yl)methyl)furan-2-carboxamide], below 5.00. `CC(C)(C)C[C@@H](O)C(=O)N1CCN(c2nc(-c3ccccc3O)nc3ccc(F)cc23)CC1` [Example 111, (R)-1-(4-(6-Fluoro-2-(2-hydroxyphenyl)quinazolin-4-yl)piperazin-1-yl)-2-hydroxy-4,4-dimethylpentan-1-one]: the pIC50 was below 5.00.

As for `Cc1ccc2c(N3CC[C@H](NC(=O)OC(C)(C)C)C3)nc(-c3ccccc3O)nc2c1` [Example 370, tert-Butyl (S)-1-(2-(2-hydroxyphenyl)-7-methylquinazolin-4-yl)pyrrolidin-3-ylcarbamate], the negative-log IC50 (pIC50) was above 5.70. On to `CC[C@@H](C)[C@@H](O)C(=O)N1CCN(c2nc(-c3ccccc3O)nc3cc(C)ccc23)CC1` [Example 176, (2R,3R)-2-Hydroxy-1-(4-(2-(2-hydroxyphenyl)-7-methylquinazolin-4-yl)piperazin-1-yl)-3-methylpentan-1-one], for which the pIC50 was below 5.00. To `Cc1ccc2c(N3CC[C@@H](CNC(=O)OC(C)C)C3)nc(-c3ccccc3O)nc2c1` [Example 368, Isopropyl ((S)-1-(2-(2-hydroxyphenyl)-7-methylquinazolin-4-yl)pyrrolidin-3-yl)methylcarbamate] belongs 5.00 to 5.70. Then `Cc1ccc2c(N3CCC[C@H](CNC(=O)OCC(C)C)C3)nc(-c3ccccc3O)nc2c1` [Example 253, Isobutyl ((R)-1-(2-(2-hydroxyphenyl)-7-methylquinazolin-4-yl)piperidin-3-yl)methylcarbamate], with below 5.00. Then `Cc1ccc2c(N3CCC(NC(=O)[C@H]4CCCO4)CC3)nc(-c3ccccc3O)nc2c1` [Example 283], with above 5.70.

For the compound `Cc1ccc2c(N3CC[C@@H](NC(=O)C4CC4)C3)nc(-c3c(O)cccc3F)nc2c1` [Example 346, N—((R)-1-(2-(2-Fluoro-6-hydroxyphenyl)-7-methylquinazolin-4-yl)pyrrolidin-3-yl)cyclopropanecarboxamide], the pIC50 is 5.00 to 5.70. Then `CCOC(=O)NC[C@@H]1CCCN(c2nc(-c3ccccc3O)nc3cc(C)ccc23)C1` [Example 254, Ethyl((S)-1-(2-(2-hydroxyphenyl)-7-methylquinazolin-4-yl)piperidin-3-yl)methylcarbamate], with 5.00 to 5.70; and `CC(C)(C)C[C@@H](O)C(=O)N1CCN(c2nc(-c3ccccc3O)nc3ccccc23)CC1` [Example 191], with above 5.70; and `Cc1ccc2c(N3CC[C@@H](CNC(=O)OCC(C)C)C3)nc(-c3c(O)cccc3F)nc2c1` [Example 372, Isobutyl ((S)-1-(2-(2-fluoro-6-hydroxyphenyl)-7-methylquinazolin-4-yl)pyrrolidin-3-yl)methylcarbamate], with above 5.70. To `CCC(O)(CC)C(=O)N1CCN(c2nc(-c3ccccc3O)nc3ccccc23)CC1` [Example 115, 2-Ethyl-2-hydroxy-1-(4-(2-(2-hydroxyphenyl)quinazolin-4-yl)piperazin-1-yl)butan-1-one] belongs below 5.00; to `Cc1ccc2c(N3CCC[C@@H](CNC(=O)O[C@H]4CO[C@@H]5OCC[C@@H]54)C3)nc(-c3ccccc3O)nc2c1` [Example 281], 5.00 to 5.70; to `Cc1ccc2c(N3CC[C@@H](NC(=O)CCN4CCCCC4)C3)nc(-c3ccccc3O)nc2c1` [Example 324], below 5.00.

As for `CCC(C)(O)C(=O)NC1CCN(c2nc(-c3ccccc3O)nc3ccccc23)CC1` (centres unmarked) [Example 242, 2-Hydroxy-N-(1-(2-(2-hydroxyphenyl)quinazolin-4-yl)piperidin-4-yl)-2-methylbutanamide], the pIC50 is 5.00 to 5.70.

Turning to `Cc1ccc2c(N3CC[C@@H](CNC(=O)O[C@H]4CCOC4)C3)nc(-c3ccccc3O)nc2c1` [Example 305, (S)-Tetrahydrofuran-3-yl ((S)-1-(2-(2-hydroxyphenyl)-7-methylquinazolin-4-yl)pyrrolidin-3-yl)methylcarbamate], the negative-log IC50 (pIC50) is 5.00 to 5.70. To `Cc1ccc2c(N3CCN(C(=O)[C@H](O)Cc4ccccc4)CC3)nc(-c3ccccc3O)nc2c1` [Example 130, (R)-2-Hydroxy-1-{4-[2-(2-hydroxy-phenyl)-7-methyl-quinazolin-4-yl]-piperazin-1-yl}-3-phenylpropan-1-one] belongs below 5.00; to `Cc1ccc2c(N3CCN(C(=O)C(C)(C)O)CC3)nc(-c3ccccc3O)nc2c1` [Example 108, 2-Hydroxy-1-(4-(2-(2-hydroxyphenyl)-7-methylquinazolin-4-yl)piperazin-1-yl)-2-methylpropan-1-one], 5.00 to 5.70; to `Cc1ccc2c(N3CC[C@@H](NC(=O)OCc4ccncc4)C3)nc(-c3ccccc3O)nc2c1` [Example 320, (Pyridin-4-yl)methyl (R)-1-(2-(2-hydroxyphenyl)-7-methylquinazolin-4-yl)pyrrolidin-3-ylcarbamate], 5.00 to 5.70. Then `CC[C@H](O)C(=O)N1CCN(c2nc(-c3ccccc3O)nc3cc(C)ccc23)CC1` [Example 124, (S)-2-Hydroxy-1-(4-(2-(2-hydroxyphenyl)-7-methylquinazolin-4-yl)piperazin-1-yl)butan-1-one], with below 5.00; and `Cc1ccc2c(N3CCC(CNC(=O)OC(C)C)CC3)nc(-c3ccccc3O)nc2c1` [Example 279], with 5.00 to 5.70.

`COc1cccc(C(=O)N[C@@H]2CCN(c3nc(-c4ccccc4O)nc4cc(C)ccc34)C2)c1` [Example 326, N—((R)-1-(2-(2-Hydroxyphenyl)-7-methylquinazolin-4-yl)pyrrolidin-3-yl)-3-methoxybenzamide]: the pIC50 is below 5.00.

Turning to `CC[C@@H](O)C(=O)NC1CCN(c2nc(-c3ccccc3O)nc3ccccc23)CC1` [Example 236, (2R)-2-Hydroxy-N-(1-(2-(2-hydroxyphenyl)quinazolin-4-yl)piperidin-4-yl)butanamide], the pIC50 was below 5.00. To `Cc1ccc2c(N3CCN(C(=O)[C@@H](O)C(C)(C)C)CC3)nc(-c3ccccc3O)nc2c1` [Example 166, (S)-2-Hydroxy-1-(4-(2-(2-hydroxyphenyl)-7-methylquinazolin-4-yl)piperazin-1-yl)-3,3-dimethylbutan-1-one] belongs below 5.00; to `Cc1ccc2c(N3CCN(C(=O)[C@H]4CCCO4)CC3)nc(-c3ccccc3O)nc2c1` [Example 187], 5.00 to 5.70; to `Cc1ccc2c(N3CCN(C(=O)O[C@H]4CCOC4)CC3)nc(-c3c(O)cccc3F)nc2c1` [Example 163, (S)-Tetrahydrofuran-3-yl 4-(2-(2-fluoro-6-hydroxyphenyl)-7-methylquinazolin-4-yl)piperazine-1-carboxylate], 5.00 to 5.70. Then `Cc1ccc2c(N3CCC[C@@H](CNC(=O)OC(C)C)C3)nc(-c3ccccc3O)nc2c1` [Example 255, Isopropyl ((S)-1-(2-(2-hydroxyphenyl)-7-methylquinazolin-4-yl)piperidin-3-yl)methylcarbamate], with below 5.00; and `O=C(C1CC1)N1CCN(c2nc(-c3ccccc3O)nc3ccc(F)cc23)CC1` [Example 192], with 5.00 to 5.70. As for `Cc1ccc2c(N3CCN(C(=O)[C@@H](O)Cc4ccccc4)CC3)nc(-c3ccccc3O)nc2c1` [Example 131, (S)-2-Hydroxy-1-{4-[2-(2-hydroxy-phenyl)-7-methyl-quinazolin-4-yl]-piperazin-1-yl}-3-phenylpropan-1-one], the pIC50 was below 5.00.

Take `CCC(C)(O)C(=O)N1CCN(c2nc(-c3ccccc3O)nc3ccccc23)CC1` (centres unmarked) [Example 129, 2-Hydroxy-1-(4-(2-(2-hydroxyphenyl)quinazolin-4-yl)piperazin-1-yl)-2-methylbutan-1-one]: the pIC50 is below 5.00.

As to `Cc1ccc2c(N3CCN(C(=O)OCC(C)C)CC3)nc(-c3c(C)cccc3O)nc2c1` [Example 193], the pIC50 is above 5.70.

For `Cc1ccc2c(N3CCN(C(=O)[C@H](O)CC(C)(C)F)CC3)nc(-c3ccccc3O)nc2c1` [Example 125, (R)-4-Fluoro-2-hydroxy-1-{4-[2-(2-hydroxy-phenyl)-7-methyl-quinazolin-4-yl]-piperazin-1-yl}-4-methyl-pentan-1-one], the pIC50 is below 5.00.

Consider `CCCOC(=O)NC[C@@H]1CCN(c2nc(-c3ccccc3O)nc3cc(C)ccc23)C1` [Example 367, Propyl ((S)-1-(2-(2-hydroxyphenyl)-7-methylquinazolin-4-yl)pyrrolidin-3-yl)methylcarbamate], for which the pIC50 was above 5.70.

Take `CCC(C)(O)C(=O)N1CCN(c2nc(-c3ccccc3O)nc3cc(C)ccc23)CC1` (centres unmarked) [Example 165, 2-Hydroxy-1-(4-(2-(2-hydroxyphenyl)-7-methylquinazolin-4-yl)piperazin-1-yl)-2-methylbutan-1-one]: the pIC50 is 5.00 to 5.70.
